These results are taken from the supplement of paper PMC10307832.

Common to all, as to assay: relative viability (nuclei count vs DMSO), 5 days (fraction); higher = more cells survive
Compound in the test “Adavosertib + Foretinib”: C=CCn1c(=O)c2cnc(Nc3ccc(N4CCN(C)CC4)cc3)nc2n1-c1cccc(C(C)(C)O)n1 [Adavosertib] + COc1cc2c(Oc3ccc(NC(=O)C4(C(=O)Nc5ccc(F)cc5)CC4)cc3F)ccnc2cc1OCCCN1CCOCC1 [Foretinib] (partner 0.25 µM)
An outline of the steps:
(§1)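 Nuclei were stained with Hoechst during a one-step fixation (final 0.05% Triton X-100, 1% formaldehyde, 1 ug/ml Hoechst) carried out 5 days after dosing, then counted on 4× images. The cells, lung cancer lines in 1536-well plates, had been dosed by pin tool the day after seeding with one drug alone or a fixed anchor-drug dose plus five library-drug doses (not always all listed) in √10 steps. Relative viability is the nuclei count in treated wells divided by that in vehicle wells, and each value is the median of duplicate plates.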

Compound in the test “Nelarabine + Lapatinib”: COc1nc(N)nc2c1ncn2[C@@H]1O[C@H](CO)[C@@H](O)[C@@H]1O [Nelarabine] + CS(=O)(=O)CCNCc1ccc(-c2ccc3ncnc(Nc4ccc(OCc5cccc(F)c5)c(Cl)c4)c3c2)o1 [Lapatinib] (partner 2 µM)
The method in brief:
as §1

Compound in the test “Nelarabine + Pictilisib”: COc1nc(N)nc2c1ncn2[C@@H]1O[C@H](CO)[C@@H](O)[C@@H]1O [Nelarabine] + CS(=O)(=O)N1CCN(Cc2cc3nc(-c4cccc5[nH]ncc45)nc(N4CCOCC4)c3s2)CC1 [Pictilisib] (partner 1 µM)
An outline of the steps: as §1

Compound in the test “Nelarabine + Crizotinib”: COc1nc(N)nc2c1ncn2[C@@H]1O[C@H](CO)[C@@H](O)[C@@H]1O [Nelarabine] + C[C@@H](Oc1cc(-c2cnn(C3CCNCC3)c2)cnc1N)c1c(Cl)ccc(F)c1Cl [Crizotinib] (partner 1 µM)
The method in brief: as §1

Consider EMC-BAC-2, for which the relative viability is 1.08 with Adavosertib + Foretinib (first compound 0.01 µM); 1.01 with Adavosertib + Foretinib (first compound 0.03162 µM); 0.995 with Adavosertib + Foretinib (first compound 0.1 µM); 0.949 in the test with Adavosertib + Foretinib (first compound 0.3162 µM); 1.05 with Nelarabine + Lapatinib (first compound 0.01 µM); 0.909 with Nelarabine + Lapatinib (first compound 0.03162 µM). Also, the relative viability with Nelarabine + Lapatinib (first compound 0.1 µM) was 0.883; with Nelarabine + Lapatinib (first compound 0.3162 µM) it was 0.962; with Nelarabine + Lapatinib (first compound 1 µM), 0.885; with Nelarabine + Pictilisib (first compound 0.01 µM), 0.548; with Nelarabine + Pictilisib (first compound 0.03162 µM), 0.544; with Nelarabine + Pictilisib (first compound 0.1 µM), 0.543. Further, the relative viability in the test with Nelarabine + Pictilisib (first compound 0.3162 µM) was 0.558; in the test with Nelarabine + Pictilisib (first compound 1 µM), 0.542; with Nelarabine + Crizotinib (first compound 0.01 µM) it was 0.734; with Nelarabine + Crizotinib (first compound 0.03162 µM), 0.624; in the test with Nelarabine + Crizotinib (first compound 0.1 µM), 0.782; in the test with Nelarabine + Crizotinib (first compound 0.3162 µM), 0.843. Moreover, the relative viability with Nelarabine + Crizotinib (first compound 1 µM) is 0.683.
